This passage reports IC50 results from PMC6795057, “Plumbagin Prevents Secretory Diarrhea by Inhibiting CaCC and CFTR Channel Activities” (Frontiers in Pharmacology, 2019).

Structures are written as SMILES.

Test [1] addresses T1, TMEM16A (transmembrane protein 16A) (Homo sapiens, UniProt Q5XXA6).
T1 construct: gene ANO1
T1 sequence (Q5XXA6 1-986): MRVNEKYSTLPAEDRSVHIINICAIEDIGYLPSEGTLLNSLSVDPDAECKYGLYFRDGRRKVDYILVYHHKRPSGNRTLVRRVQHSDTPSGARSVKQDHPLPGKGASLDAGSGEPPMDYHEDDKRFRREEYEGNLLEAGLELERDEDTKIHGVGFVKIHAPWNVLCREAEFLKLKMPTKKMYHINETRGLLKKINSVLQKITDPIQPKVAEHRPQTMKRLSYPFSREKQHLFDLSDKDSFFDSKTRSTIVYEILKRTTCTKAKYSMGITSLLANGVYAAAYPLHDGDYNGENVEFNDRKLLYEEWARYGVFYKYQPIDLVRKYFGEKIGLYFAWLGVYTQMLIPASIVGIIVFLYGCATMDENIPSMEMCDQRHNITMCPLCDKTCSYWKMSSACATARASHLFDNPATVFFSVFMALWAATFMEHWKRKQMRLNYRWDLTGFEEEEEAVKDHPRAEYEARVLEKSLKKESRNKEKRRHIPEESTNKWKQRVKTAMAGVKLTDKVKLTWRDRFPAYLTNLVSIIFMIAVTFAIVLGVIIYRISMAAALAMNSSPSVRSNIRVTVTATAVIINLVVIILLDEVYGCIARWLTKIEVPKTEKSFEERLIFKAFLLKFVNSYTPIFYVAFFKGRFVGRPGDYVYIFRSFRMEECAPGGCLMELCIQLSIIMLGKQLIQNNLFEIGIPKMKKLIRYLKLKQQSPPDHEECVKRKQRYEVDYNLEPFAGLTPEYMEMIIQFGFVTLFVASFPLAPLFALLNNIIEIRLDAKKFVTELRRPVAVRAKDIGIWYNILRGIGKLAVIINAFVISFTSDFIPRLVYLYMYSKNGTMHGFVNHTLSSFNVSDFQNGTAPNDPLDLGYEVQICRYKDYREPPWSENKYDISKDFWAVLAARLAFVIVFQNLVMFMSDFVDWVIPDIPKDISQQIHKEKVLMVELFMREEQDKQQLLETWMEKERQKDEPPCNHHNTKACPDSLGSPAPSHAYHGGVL
Kind of test: YFP iodide-influx fluorescence quenching in TMEM16A-expressing FRT cells; Eact-stimulated short-circuit current. The test is classed as cell-based.

Test [2] has as its target CFTR (cystic fibrosis transmembrane conductance regulator) (Homo sapiens, UniProt P13569). Nature of the test: short-circuit current in HT-29 cells, FSK-stimulated; also inhibits current with genistein (direct activator, IC50 […]). The test is classed as cell-based.

Sequence of CFTR (cystic fibrosis transmembrane conductance regulator) (P13569 whole entry): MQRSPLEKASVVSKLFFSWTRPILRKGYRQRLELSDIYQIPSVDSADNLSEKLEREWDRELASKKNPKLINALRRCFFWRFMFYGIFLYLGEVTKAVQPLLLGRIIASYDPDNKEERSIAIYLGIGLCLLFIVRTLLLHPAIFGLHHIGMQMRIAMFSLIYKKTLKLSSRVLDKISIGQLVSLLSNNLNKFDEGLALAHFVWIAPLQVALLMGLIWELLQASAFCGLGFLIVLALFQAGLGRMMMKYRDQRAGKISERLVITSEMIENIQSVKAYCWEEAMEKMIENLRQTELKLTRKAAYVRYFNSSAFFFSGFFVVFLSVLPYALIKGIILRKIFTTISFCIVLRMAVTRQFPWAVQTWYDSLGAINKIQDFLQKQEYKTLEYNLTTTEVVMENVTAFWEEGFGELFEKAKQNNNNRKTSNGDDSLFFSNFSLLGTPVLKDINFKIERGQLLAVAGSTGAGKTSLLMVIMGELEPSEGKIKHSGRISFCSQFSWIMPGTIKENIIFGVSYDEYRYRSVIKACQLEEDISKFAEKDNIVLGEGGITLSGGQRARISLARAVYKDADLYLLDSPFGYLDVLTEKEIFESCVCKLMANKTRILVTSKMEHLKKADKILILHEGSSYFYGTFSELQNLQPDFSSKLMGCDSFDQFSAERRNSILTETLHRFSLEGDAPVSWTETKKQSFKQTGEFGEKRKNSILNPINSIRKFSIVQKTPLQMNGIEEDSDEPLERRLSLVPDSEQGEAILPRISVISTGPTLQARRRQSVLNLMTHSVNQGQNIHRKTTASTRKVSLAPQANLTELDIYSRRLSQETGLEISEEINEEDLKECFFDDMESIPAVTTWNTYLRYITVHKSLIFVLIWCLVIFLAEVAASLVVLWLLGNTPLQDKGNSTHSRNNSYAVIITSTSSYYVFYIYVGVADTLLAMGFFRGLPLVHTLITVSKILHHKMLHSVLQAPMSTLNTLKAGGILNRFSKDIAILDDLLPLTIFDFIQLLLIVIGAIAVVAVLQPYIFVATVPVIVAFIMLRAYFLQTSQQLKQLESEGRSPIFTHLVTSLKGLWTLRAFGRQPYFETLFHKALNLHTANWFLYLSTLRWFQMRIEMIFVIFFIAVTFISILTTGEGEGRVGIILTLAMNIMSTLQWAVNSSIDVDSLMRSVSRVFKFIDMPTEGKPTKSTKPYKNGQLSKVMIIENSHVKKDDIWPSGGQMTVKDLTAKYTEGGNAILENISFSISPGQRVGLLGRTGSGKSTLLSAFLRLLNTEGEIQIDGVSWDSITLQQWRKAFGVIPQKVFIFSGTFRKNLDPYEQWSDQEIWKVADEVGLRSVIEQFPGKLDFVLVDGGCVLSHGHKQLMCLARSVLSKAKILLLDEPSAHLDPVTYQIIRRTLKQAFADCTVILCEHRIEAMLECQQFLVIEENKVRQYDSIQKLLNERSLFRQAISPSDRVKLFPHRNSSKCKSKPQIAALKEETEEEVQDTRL

`CC1=CC(=O)c2c(O)cccc2C1=O` [plumbagin]: the results for the IC50 in test [1] and in test [2] were approximately 12.5 µM and 3.9 µM, respectively.
